Measurements as given in ChEMBL document CHEMBL3108760, “Epigallocatechin 3-O-gallate induces 67 kDa laminin receptor-mediated cell death accompanied by downregulation of ErbB proteins and altered lipid raft clustering in mammary and epidermoid carcinoma cells” (J Nat Prod, 2014).
pEC50: −log10 of the molar value. The source made the active and inactive calls. The rule behind the calls is not given here.

Key:
[1] = target: Small ribosomal subunit protein uS2 (Homo sapiens) (UniProt P08865); experiment: Inhibition of 67LR co-localization in lipid rafts containing cholera toxin labeled GM1 gangliosides in human A431 cells after 30 mins by immunofluorescence-based confocal microscopic analysis (reference value: 75%); format: cell-based; settings: A-431
[2] = tested on: A-431; experiment: Reduction of clustering of GFP-GPI in lipid rafts of human A431 cells at 100 uM after 12 hrs by confocal microscopic analysis; format: functional, cell-based
[3] = tested on: SK-BR-3; experiment: Reduction of clustering of GFP-GPI in lipid rafts of human SKBR3 cells at 100 uM after 12 hrs by confocal microscopic analysis; format: functional, cell-based
[4] = target: Receptor tyrosine-protein kinase erbB-2 (Homo sapiens) (UniProt P04626); experiment: Induction of ErbB2 internalization in lysosome/endosome of human A431 cells in serum free medium at 200 uM after 30 mins by immunofluorescence staining-based confocal microscopic analysis; format: cell-based; settings: A-431
[5] = target: Receptor tyrosine-protein kinase erbB-2 (Homo sapiens) (UniProt P04626); experiment: Induction of ErbB2 internalization in lysosome/endosome of human SKBR3 cells in serum free medium at 200 uM after 30 mins by immunofluorescence staining-based confocal microscopic analysis; format: cell-based; settings: SK-BR-3
[6] = tested on: A-431; experiment: Downregulation of ErbB1 protein expression in human A431 cells in serum free medium at 200 uM after 30 mins by immunofluorescence staining-based confocal microscopic analysis; format: functional, cell-based
[7] = Downregulation of ErbB2 protein expression in human SKBR3 cells in serum free medium at 200 uM after 30 mins by immunofluorescence staining-based confocal microscopic analysis; format: functional, cell-based; settings: SK-BR-3
[8] = tested on: A-431; experiment: Downregulation of ErbB1 protein expression in human A431 cells at 50 uM after 24 hrs by immunofluorescence staining-based flow cytometric analysis in presence of serum; format: functional, cell-based
[9] = Downregulation of ErbB2 protein expression in human SKBR3 cells at 50 uM after 24 hrs by immunofluorescence staining-based flow cytometric analysis in presence of serum; format: functional, cell-based; settings: SK-BR-3
[10] = tested on: A-431; experiment: Downregulation of ErbB1 protein expression in human A431 cells in serum free medium at 50 uM after 24 hrs by immunofluorescence staining-based flow cytometric analysis; format: functional
[11] = Downregulation of ErbB2 protein expression in human SKBR3 cells in serum free medium at 50 uM after 24 hrs by immunofluorescence staining-based flow cytometric analysis; format: functional, cell-based; settings: SK-BR-3
[12] = tested on: A-431; experiment: Cell cycle arrest in human A431 cells at 50 to 75 uM after 36 hrs by propidium iodide staining-based flow cytometric analysis; format: functional
[13] = Cell cycle arrest in human SKBR3 cells at 50 to 75 uM after 36 hrs by propidium iodide staining-based flow cytometric analysis; format: functional; settings: SK-BR-3
[14] = tested on: A-431; experiment: Antiproliferative activity against anti-67LR treated human A431 cells overexpressing ErbB assessed as cell viability at 100 to 200 uM after 24 hrs by WST-1 staining-based spectrophotometric analysis; format: functional
[15] = tested on: A-431; experiment: Induction of apoptosis in human A431 cells overexpressing ErbB in complete medium assessed as late apoptotic/necrotic cells at 75 uM after 72 hrs by annexin V-FITC/7-AAD staining-based flow cytometric analysis relative to control; format: functional
[16] = tested on: SK-BR-3; experiment: Induction of apoptosis in human SKBR3 cells overexpressing ErbB in complete medium assessed as late apoptotic/necrotic cells at 75 uM after 72 hrs by annexin V-FITC/7-AAD staining-based flow cytometric analysis relative to control; format: functional
[17] = tested on: SK-BR-3; experiment: Ratio of EC50 for human SKBR3 cells overexpressing ErbB in complete medium to EC50 for human SKBR3 cells overexpressing ErbB in serum-free medium; format: functional
[18] = Antiproliferative activity against human SKBR3 cells overexpressing ErbB in serum-free medium assessed as cell viability after 48 hrs by WST-1 assay; format: functional, cell-based; settings: SK-BR-3, 48 h
[19] = Antiproliferative activity against human SKBR3 cells overexpressing ErbB in complete medium assessed as cell viability after 48 hrs by WST-1 assay; format: functional, cell-based; settings: SK-BR-3, 48 h
[20] = tested on: A-431; experiment: Ratio of EC50 for human A431 cells overexpressing ErbB in complete medium to EC50 for human A431 cells overexpressing ErbB in serum-free medium; format: functional
[21] = tested on: A-431; experiment: Antiproliferative activity against human A431 cells overexpressing ErbB in complete medium assessed as cell viability after 48 hrs by WST-1 assay; format: functional, cell-based; settings: A-431, 48 h
[22] = tested on: A-431; experiment: Antiproliferative activity against human A431 cells overexpressing ErbB in serum-free medium assessed as cell viability after 48 hrs by WST-1 assay; format: functional, cell-based; settings: A-431, 48 h
[23] = tested on: A-431; experiment: Cell cycle arrest in human A431 cells assessed as decrease in accumulation at G0/G1 phase at 50 to 75 uM after 36 hrs by propidium iodide staining-based flow cytometric analysis; format: functional
[24] = Cell cycle arrest in human SKBR3 cells assessed as decrease in accumulation at G0/G1 phase at 50 to 75 uM after 36 hrs by propidium iodide staining-based flow cytometric analysis; format: functional; settings: SK-BR-3
[25] = Cell cycle arrest in human SKBR3 cells assessed as accumulation at G2/M phase at 50 to 75 uM after 36 hrs by propidium iodide staining-based flow cytometric analysis relative to control; format: functional; settings: SK-BR-3
[26] = tested on: A-431; experiment: Cell cycle arrest in human A431 cells assessed as accumulation at G2/M phase at 50 to 75 uM after 36 hrs by propidium iodide staining-based flow cytometric analysis relative to control; format: functional
[27] = tested on: A-431; experiment: Induction of apoptosis in human A431 cells overexpressing ErbB in complete medium assessed as late apoptotic/necrotic cells at 50 to 75 uM after 72 hrs by annexin V-FITC/7-AAD staining-based flow cytometric analysis; format: functional, cell-based
[28] = tested on: SK-BR-3; experiment: Induction of apoptosis in human SKBR3 cells overexpressing ErbB in complete medium assessed as late apoptotic/necrotic cells at 50 to 75 uM after 72 hrs by annexin V-FITC/7-AAD staining-based flow cytometric analysis; format: functional, cell-based

Sequence of Receptor tyrosine-protein kinase erbB-2 (Homo sapiens) (P04626 whole entry): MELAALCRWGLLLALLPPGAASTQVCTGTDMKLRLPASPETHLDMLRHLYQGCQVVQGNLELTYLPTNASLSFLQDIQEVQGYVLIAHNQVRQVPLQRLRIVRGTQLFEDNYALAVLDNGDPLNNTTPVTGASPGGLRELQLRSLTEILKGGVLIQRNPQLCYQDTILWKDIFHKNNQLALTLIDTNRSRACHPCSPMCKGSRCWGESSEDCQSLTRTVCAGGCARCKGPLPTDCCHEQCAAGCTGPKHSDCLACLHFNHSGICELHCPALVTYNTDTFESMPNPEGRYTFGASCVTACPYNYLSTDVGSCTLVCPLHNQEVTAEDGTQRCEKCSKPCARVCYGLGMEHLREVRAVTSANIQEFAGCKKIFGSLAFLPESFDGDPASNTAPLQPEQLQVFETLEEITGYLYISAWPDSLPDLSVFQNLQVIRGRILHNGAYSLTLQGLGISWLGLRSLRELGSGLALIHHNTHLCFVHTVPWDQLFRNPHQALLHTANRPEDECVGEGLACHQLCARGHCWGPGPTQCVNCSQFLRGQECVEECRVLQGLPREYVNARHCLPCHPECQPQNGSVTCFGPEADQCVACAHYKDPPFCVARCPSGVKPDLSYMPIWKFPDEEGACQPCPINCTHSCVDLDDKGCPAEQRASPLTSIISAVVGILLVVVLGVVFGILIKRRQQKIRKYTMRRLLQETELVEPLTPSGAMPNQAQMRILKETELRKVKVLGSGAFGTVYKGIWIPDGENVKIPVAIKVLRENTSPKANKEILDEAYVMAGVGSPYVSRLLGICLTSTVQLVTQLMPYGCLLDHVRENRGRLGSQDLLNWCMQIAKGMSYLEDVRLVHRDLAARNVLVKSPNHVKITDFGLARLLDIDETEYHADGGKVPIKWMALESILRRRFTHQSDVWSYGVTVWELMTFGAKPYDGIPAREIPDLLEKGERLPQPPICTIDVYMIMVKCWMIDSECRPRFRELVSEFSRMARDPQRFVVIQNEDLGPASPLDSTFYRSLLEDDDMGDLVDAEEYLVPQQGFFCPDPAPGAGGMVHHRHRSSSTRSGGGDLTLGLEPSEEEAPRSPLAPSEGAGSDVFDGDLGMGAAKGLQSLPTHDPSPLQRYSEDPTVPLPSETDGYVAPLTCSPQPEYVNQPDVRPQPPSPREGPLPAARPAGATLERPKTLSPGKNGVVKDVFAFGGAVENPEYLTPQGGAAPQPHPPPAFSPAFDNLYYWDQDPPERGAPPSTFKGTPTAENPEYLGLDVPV

For `O=C(O[C@@H]1Cc2c(O)cc(O)cc2O[C@@H]1c1cc(O)c(O)c(O)c1)c1cc(O)c(O)c(O)c1` [EPIGALOCATECHIN GALLATE], the inhibition [1] was 47%, the Activity [2] was “Active” and the Activity [3] was “Active”. For the same molecule, the Activity [4] was “Active”, the Activity [5] was “Active” and the Activity [6] was “Active”. For the same molecule, the Activity [7] was “Active”, the Activity [8] was “inactive” and the Activity [9] was “inactive”. The Activity [10] was 30%, the Activity [11] was 30% and the Activity [12] was “inactive”. For the same molecule, the Activity [13] was “inactive”, the Activity [14] was “inactive” and the Activity [15] was 80%. The Activity [16] was 40%, the “Ratio EC50” value [17] was 2 and the pEC50 [18] was 4.00. For the same molecule, the pEC50 [19] was 3.71, the “Ratio EC50” value [20] was 2 and the pEC50 [21] was 3.58. It also gave a pEC50 [22] of 4.42.
In the case of `O=c1c(-c2ccc(O)cc2)coc2cc(O)cc(O)c12` [GENISTEIN], the Activity [2] was “inactive”, the Activity [3] was “inactive” and the Activity [23] was “Active”. The Activity [24] was “Active”, the Activity [10] was “inactive” and the Activity [11] was “inactive”. The Activity [25] was 50%, the Activity [26] was “Active” and the Activity [27] was “Active”. For the same molecule, the Activity [28] was “inactive”, the “Ratio EC50” value [17] was 2 and the pEC50 [18] was 4.01. For the same molecule, the pEC50 [19] was 3.39, the “Ratio EC50” value [20] was 2 and the pEC50 [21] was 3.56. For the same molecule, the pEC50 [22] was 3.97.
